Measured values taken from US20250353835A1, “N-TETRAZOLYL ARYL UREA-BASED DERIVATIVES, PREPARATION METHOD THEREFOR, AND USE THEREOF” (Hangzhou Yirui Pharmaceutical Technology Co., Ltd, priority 2022, published 2025).

What follows are compounds tested against T1, human B1R (Homo sapiens, UniProt P46663) (assay: FLIPR calcium ion flux assay, inhibitory activity against human B1R). Settings: HEK293 cells stably expressing human B1R; agonist [Lys-des-Arg9]-Bradykinin 4.6 nM (EC80); FLIPR method.
T1 construct: host or cells: HEK293
T1 sequence (P46663 1-353): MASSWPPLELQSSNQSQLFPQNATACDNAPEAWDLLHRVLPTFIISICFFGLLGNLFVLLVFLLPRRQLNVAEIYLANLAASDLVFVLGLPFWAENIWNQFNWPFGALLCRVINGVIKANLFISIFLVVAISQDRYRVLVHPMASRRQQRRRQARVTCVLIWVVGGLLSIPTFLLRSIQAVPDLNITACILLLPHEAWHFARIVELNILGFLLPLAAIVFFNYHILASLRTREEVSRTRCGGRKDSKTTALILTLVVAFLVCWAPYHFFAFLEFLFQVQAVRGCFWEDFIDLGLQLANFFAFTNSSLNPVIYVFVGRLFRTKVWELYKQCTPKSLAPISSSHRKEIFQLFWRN
Assay type: cell-based
Protocol: The inhibitory activity of the compounds against human B1R and B2R channels was determined by calcium ion flux assay using fluorometric imaging plate reader (FLIPR method). See literatures of Lee, Chen et al. for the method. [Lee et al. 2008][Chen et al. 2011]
1. Cell culture: HEK293 recombinant cell lines (WuXi AppTec, Shanghai, China) stably expressing human B1R and B2R were cultured in DMEM (Invitrogen, Cat #11965) medium containing 10% calf serum (Excellbio, Cat #FSP500), 5 μg/ml Geneticin (Invitrogen, Cat #10131) and Penicillin/Streptomycin (Invitrogen, Cat #15140). The incubator conditions were 37° C. and ambient humidity containing 5% CO2.
2. Preparation of the cell assay plate: B1R and B2R cells were seeded in a 384-well assay plate (Greiner, Cat #781090) at a density of 20,000 cells per well (20 μl/well), and cultured overnight at 37° C. in an incubator with 5% CO2. The next day, Fluo-4 Direct™ Loading Buffer (containing 5 mM Probenicid) containing 2× (8 μM) Fluo-4 Direct (Invitrogen, Cat #F10471) was added to each of the wells. The cells were cultured at 37° C. for 50 min, and then culture for at the room temperature 10 min.
3. Preparation of the compound assay plate: The compound was dissolved in 100% DMSO to make a 30 mM stock solution and stored at −20° C. On the day of use, the stock solution of the compound was thawed at the room temperature. Each of the compounds was serially diluted at 1:5 in DMSO culture medium with a starting concentration of 30 μM for 9 concentration points on a 384-well plate. Each of compounds was diluted in duplicate for testing. [Des-Arg10]-HOE140 was used as a positive control compound, and diluted in the same manner with a starting concentration of 3 μM.
4. FLIPR assay: The cell assay plate was placed in a FLIPR instrument ([…]). The compounds in the compound assay plate were added to the corresponding wells on the cell assay plate (10 μL/well) using an automatic program. The calcium ion fluorescence signal was recorded to determine whether the compound may have agonist activity. After 10 minutes, a B1R agonist [Lys-des-Arg9]-Bradykinin2 (10 μL/well) with a final concentration of 4.6 nM (EC80) was added to each of the wells to stimulate the generation of intracellular calcium ion flux signals. The Ca^++-dependent fluorescence signal was continuously monitored at a wavelength of 538 nm to analyze the inhibitory activity of the compound.
5. Data analysis: The data was collected and analyzed by a FLIPR program. The inhibitory (or agonist) activity of the compound at each concentration was evaluated by the fluorescence peak. The IC50 values of the compounds were calculated using EXCEL and PRISM programs.

| Structure (SMILES) | IC50 |
| --- | --- |
| Cc1ccc(NC(=O)c2ccc(NC(=O)N3CCC(C(C)(C)C)CC3)cc2-c2nn[nH]n2)nc1 [Compound 47, 4-(tert-butyl)-N-(4-((5-methylpyridin-2-yl)aminoformyl)-3-(2H-tetrazol-5-yl)phenyl)piperidine-1-carboxamide] | 93.9 nM |
| COc1cncc(-c2ccc(NC(=O)N3CCC(C(C)(C)C)CC3)cc2-c2nn[nH]n2)c1 [Compound 48, 4-(tert-butyl)-N-(4-(5-methoxypyrid-3-yl)-3-(2H-tetrazol-5-yl)phenyl)piperidine-1-carboxamide] | 372 nM |
| CC(C)Oc1ccc(-c2ccc(NC(=O)N3CCC(C(C)(C)C)CC3)cc2-c2nn[nH]n2)cn1 [Compound 49, 4-(tert-butyl)-N-(4-(6-isopropoxypyrid-3-yl)-3-(2H-tetrazol-5-yl)phenyl)piperidine-1-carboxamide] | 9.6 nM |
| COc1cncc(-c2c(F)cc(NC(=O)N3CCC(C(C)(C)C)CC3)cc2-c2nn[nH]n2)c1 [Compound 50, 4-(tert-butyl)-N-(3-fluoro-4-(5-methoxypyrid-3-yl)-5-(2H-tetrazol-5-yl)phenyl) piperidine-1-carboxamide] | 54.8 nM |
| Cc1ccc(-c2ccc(NC(=O)N3CCC(C(C)(C)C)CC3)cc2-c2nn[nH]n2)cn1 [Compound 51, 4-(tert-butyl)-N-(4-(6-methylpyrid-3-yl)-3-(2H-tetrazol-5-yl)phenyl)piperidine-1-carboxamide] | 17.8 nM |
| Cc1cc(-c2ccc(NC(=O)N3CCC(C(C)(C)C)CC3)cc2-c2nn[nH]n2)ccn1 [Compound 52, 4-(tert-butyl)-N-(4-(2-methylpyridin-4-yl)-3-(2H-tetrazol-5-yl)phenyl)piperidine-1-carboxamide] | 34.9 nM |
| CC(C)(C)C1CCN(C(=O)Nc2cc(F)c(C(=O)NC3CCCC3)c(-c3nn[nH]n3)c2)CC1 [Compound 53, 4-(tert-butyl)-N-(4-(cyclopentylaminoformyl)-3-fluoro-5-(2H-tetrazol-5-yl)phenyl)piperidine-1-carboxamide] | 48.1 nM |
| Cc1ccc(NC(=O)c2c(F)cc(NC(=O)N3CCC(C(C)(C)C)CC3)cc2-c2nn[nH]n2)nc1 [Compound 54, 4-(tert-butyl)-N-(3-fluoro-4-((5-methylpyridin-2-yl)aminoformyl)-5-(2H-tetrazol-5-yl)phenyl)piperidine-1-carboxamide] | 67.9 nM |
| Cc1ccc(-c2c(F)cc(NC(=O)N3CCC(C(C)(C)C)CC3)cc2-c2nn[nH]n2)cn1 [Compound 55, 4-(tert-butyl)-N-(3-fluoro-4-(6-methylpyrid-3-yl)-5-(2H-tetrazol-5-yl)phenyl)piperidine-1-carboxamide] | 8.9 nM |
| CC(C)Oc1ccc(-c2c(F)cc(NC(=O)N3CCC(C(C)(C)C)CC3)cc2-c2nn[nH]n2)cn1 [Compound 56, 4-(tert-butyl)-N-(3-fluoro-4-(6-isopropoxypyrid-3-yl)-5-(2H-tetrazol-5-yl)phenyl)piperidine-1-carboxamide] | 7.6 nM |
| CC(C)(C)c1cn(-c2c(F)cc(NC(=O)N3CCC(C(C)(C)C)CC3)cc2-c2nn[nH]n2)cn1 [Compound 57, 4-(tert-butyl)-N-(4-(4-(tert-butyl)-1H-imidazol-1-yl)-3-fluoro-5-(2H-tetrazol-5-yl)phenyl)piperidine-1-carboxamide] | 8.1 nM |
| CC(C)(C)c1cn(-c2ccc(NC(=O)N3CCC(C(C)(C)C)CC3)cc2-c2nn[nH]n2)cn1 [Compound 58, 4-(tert-butyl)-N-(4-(4-(tert-butyl)-1H-imidazol-1-yl)-3-(2H-tetrazol-5-yl)phenyl)piperidine-1-carboxamide] | 8.6 nM |
| COc1ccc(-c2ccc(NC(=O)NC3CCC(C(C)(C)C)CC3)cc2-c2nn[nH]n2)cc1OC (stereo not shown) [Compound 59, 1-(4-(tert-butyl)cyclohexyl)-3-(3′,4′-dimethoxy-2-(2H-tetrazol-5-yl)-[1,1′-biphenyl]-4-yl)urea] | 35.4 nM |
| COc1ccc(-c2ccc(NC(=O)Nc3ccc(C(F)(F)F)cc3)cc2-c2nn[nH]n2)cc1OC [Compound 60, 1-(3′,4′-dimethoxy-2-(2H-tetrazol-5-yl)-[1,1′-biphenyl]-4-yl)-3-(4-(trifluoromethyl)phenyl)urea] | 247 nM |
| COc1ccc(-c2ccc(NC(=O)N[C@H]3CC[C@@H](C)CC3)cc2-c2nn[nH]n2)cc1OC [Compound 61, 1-(3′,4′-dimethoxy-2-(2H-tetrazol-5-yl)-[1,1′-biphenyl]-4-yl)-3-(4-methylcyclohexyl)urea] | 92.2 nM |
| COc1ccc(-c2ccc(NC(=O)N[C@H]3CC[C@H](C)CC3)cc2-c2nn[nH]n2)cc1OC [Compound 62, 1-(3′,4′-dimethoxy-2-(2H-tetrazol-5-yl)-[1,1′-biphenyl]-4-yl)-3-((trans)-4-methylcyclohexyl)urea] | 60.2 nM |
| COc1ccc(Oc2ccc(NC(=O)N[C@H]3CC[C@@H](C)CC3)cc2-c2nn[nH]n2)cc1OC [Compound 63, 1-(4-(3,4-dimethoxyphenoxy)-3-(2H-tetrazol-5-yl)phenyl)-3-((cis)-4-methylcyclohexyl)urea] | 7710 nM |
| COc1ccc(Oc2ccc(NC(=O)N[C@H]3CC[C@H](C)CC3)cc2-c2nn[nH]n2)cc1OC [Compound 64, 1-(4-(3,4-dimethoxyphenoxy)-3-(2H-tetrazol-5-yl)phenyl)-3-((trans)-4-methylcyclohexyl)urea] | 9900 nM |
| C[C@H]1CC[C@H](NC(=O)Nc2ccc(C3=CCOCC3)c(-c3nn[nH]n3)c2)CC1 [Compound 66, 1-(4-(3,6-dihydro-2H-pyran-4-yl)-3-(2H-tetrazol-5-yl)phenyl)-3-((trans)-4-methylcyclohexyl)urea] | 1650 nM |
| C[C@H]1CC[C@@H](NC(=O)Nc2ccc(C3CCOCC3)c(-c3nn[nH]n3)c2)CC1 [Compound 67, 1-((cis)-4-methylcyclohexyl)-3-(4-(tetrahydro-2H-pyran-4-yl)-3-(2H-tetrazol-5-yl)phenyl)urea] | 13300 nM |
| C[C@H]1CC[C@H](NC(=O)Nc2ccc(C3CCOCC3)c(-c3nn[nH]n3)c2)CC1 [Compound 68, 1-((trans)-4-methylcyclohexyl)-3-(4-(tetrahydro-2H-pyran-4-yl)-3-(2H-tetrazol-5-yl)phenyl)urea] | 7490 nM |
| C[C@H]1CC[C@H](NC(=O)Nc2ccc(-c3ccc4c(c3)OCO4)c(-c3nn[nH]n3)c2)CC1 [Compound 69, 1-(4-(benzo[d][1,3]dioxolan-5-yl)-3-(2H-tetrazol-5-yl)phenyl)-3-((trans)-4-methylcyclohexyl)urea] | 4910 nM |
| CC(C)(C)[C@H]1CC[C@@H](NC(=O)Nc2ccc(-c3ccc4c(c3)OCO4)c(-c3nn[nH]n3)c2)CC1 [Compound 70, 1-(4-(benzo[d][1,3]dioxolan-5-yl)-3-(2H-tetrazol-5-yl)phenyl)-3-((cis)-4-(tert-butyl)cyclohexyl)urea] | 303 nM |
| C[C@H]1CC[C@@H](NC(=O)Nc2ccc(OC3CCOCC3)c(-c3nn[nH]n3)c2)CC1 [Compound 72] | 12000 nM |
| C[C@H]1CC[C@H](NC(=O)Nc2ccc(OC3CCOCC3)c(-c3nn[nH]n3)c2)CC1 [Compound 73] | 13700 nM |
